Assay results taken from the CheMixHub drug solubility set.

Test: xn = mol fraction of the nth substance listed, in the solute-free solvent

O=CC(O)C(O)C(O)CO (centres undefined) + CC(C)O + CCCCCC
solubility (g/100 g solution)
Conditions | x2 = 0.1 | x2 = 0.2 | x2 = 0.3 | x2 = 0.4 | x2 = 0.5 | x2 = 0.6 | x2 = 0.7 | x2 = 0.8 | x2 = 0.9
283.15 K | 0.0751 | 0.111 | 0.142 | 0.164 | 0.188 | 0.271 | 0.405 | 0.615 | 0.82
293.15 K | 0.0952 | 0.126 | 0.198 | 0.238 | 0.307 | 0.453 | 0.646 | 0.819 | 1.12
303.15 K | 0.112 | 0.13 | 0.233 | 0.362 | 0.471 | 0.665 | 1 | 1.4 | 2.1
313.15 K | 0.129 | 0.16 | 0.277 | 0.518 | 0.76 | 1.08 | 1.61 | 2.29 | 3.38
323.15 K | 0.14 | 0.247 | 0.388 | 0.792 | 1.16 | 1.83 | 2.77 | 4 | 6.03

Cc1cc(Cl)cc(C(=O)O)c1N + CC(C)=O + CO
solubility (g/100 g solution)
Conditions | 278.15 K | 283.15 K | 288.15 K | 293.15 K | 298.15 K | 303.15 K | 308.15 K | 313.15 K | 318.15 K | 323.15 K
x2 = 0.0885 | 1.19 | 1.38 | 1.68 | 1.99 | 2.4 | 2.86 | 3.39 | 4.09 | 4.87 | 5.8
x2 = 0.1908 | 1.63 | 1.86 | 2.21 | 2.59 | 3.05 | 3.58 | 4.22 | 5.04 | 5.96 | 7.04
x2 = 0.3105 | 2.08 | 2.33 | 2.75 | 3.19 | 3.7 | 4.29 | 5.04 | 5.98 | 7.04 | 8.27
x2 = 0.4522 | 2.52 | 2.8 | 3.28 | 3.79 | 4.35 | 5.01 | 5.85 | 6.92 | 8.12 | 9.48
x2 = 0.6228 | 2.96 | 3.27 | 3.81 | 4.39 | 4.99 | 5.71 | 6.66 | 7.84 | 9.18 | 10.7
x2 = 0.832 | 3.4 | 3.74 | 4.34 | 4.98 | 5.64 | 6.42 | 7.47 | 8.77 | 10.2 | 11.9

O=C(O)c1ccc(-n2nc(-c3ccccc3O)nc2-c2ccccc2O)cc1 + CC(O)CO + CCO
298.15 K
Conditions | solubility (g/100 g solution)
x2 = 0.06303 | 11.6
x2 = 0.1315 | 12.2
x2 = 0.206 | 12.8
x2 = 0.2875 | 13.4
x2 = 0.3771 | 13.7
x2 = 0.4759 | 13.4
x2 = 0.5855 | 12.4
x2 = 0.7077 | 11.2
x2 = 0.8449 | 10.1

CCc1cccc2c3c([nH]c12)C(CC)(CC(=O)O)OCC3 (centres undefined) + CCCCOC(C)=O + CCCCCC
solubility (g/100 g solution)
Conditions | 278.15 K | 283.15 K | 288.15 K | 293.15 K | 298.15 K | 303.15 K | 308.15 K | 313.15 K | 318.15 K | 323.15 K
x2 = 0.1568 | 0.52 | 0.667 | 0.805 | 0.936 | 1.08 | 1.23 | 1.41 | 1.62 | 1.86 | 2.07
x2 = 0.3309 | 3.1 | 3.48 | 3.93 | 4.43 | 5 | 5.64 | 6.39 | 7.21 | 8.15 | 9.12
x2 = 0.5268 | 4.5 | 5.13 | 5.79 | 6.5 | 7.27 | 8.13 | 9.13 | 10.2 | 11.5 | 12.9
x2 = 0.7478 | 7.51 | 8.4 | 9.35 | 10.4 | 11.5 | 12.8 | 14.2 | 15.8 | 17.5 | 19.4

CC(=O)OC(OC(C)=O)c1ccc([N+](=O)[O-])o1 + C1CCOC1 + CC#N
solubility (g/100 g solution)
Conditions | 278.15 K | 283.15 K | 288.15 K | 293.15 K | 298.15 K | 303.15 K | 308.15 K | 313.15 K | 318.15 K | 323.15 K
x2 = 0.1463 | 5.45 | 7.32 | 9.5 | 12.1 | 15 | 18.6 | 22.7 | 27.8 | 33.5 | 40
x2 = 0.2961 | 9.28 | 11.7 | 14.9 | 18.5 | 23.1 | 28.4 | 34.3 | 40.7 | 47.5 | 54.4
x2 = 0.4354 | 12.3 | 15.2 | 19.6 | 24.6 | 29.7 | 35.9 | 42.6 | 49.4 | 56 | 62.3
x2 = 0.5816 | 14.6 | 17.7 | 23 | 28.6 | 34.3 | 40.8 | 47.9 | 54.4 | 61 | 67.2
x2 = 0.7445 | 17.2 | 21.4 | 26.5 | 32.5 | 38.5 | 45.1 | 51.9 | 58.3 | 64.6 | 70.5
x2 = 0.8896 | 23.6 | 28 | 33.2 | 39.3 | 45.3 | 51.9 | 57.8 | 63.6 | 68.8 | 73.9

CC(C)Oc1ccc2c(=O)c(-c3ccccc3)coc2c1 + CC(=O)N(C)C + CCO
solubility (g/100 g solution)
Conditions | 278.15 K | 283.15 K | 288.15 K | 293.15 K | 298.15 K | 303.15 K | 308.15 K | 313.15 K | 318.15 K | 323.15 K
x2 = 0.1146 | 1.53 | 1.91 | 2.45 | 3.3 | 4.13 | 5.36 | 7.01 | 8.71 | 11 | 14
x2 = 0.2681 | 2.21 | 2.72 | 3.46 | 4.21 | 5.26 | 6.49 | 8.02 | 9.92 | 12.2 | 15.1
x2 = 0.4379 | 4.02 | 4.85 | 5.82 | 7.08 | 8.67 | 10.2 | 12.4 | 14.5 | 17.7 | 21.8
x2 = 0.6771 | 6.41 | 8.04 | 9.6 | 11.1 | 13 | 15.4 | 18 | 21.2 | 25 | 28.9
